Assay results as given in patent US8318736B2, “HIV inhibiting 5,6-substituted pyrimidines” (Janssen R&D Ireland, priority 2006, dated 2012).
Read-outs that look alike come from different tables or passages of the source.

Columns and labels:
Assay in all cases: microbe, parasite or virus in culture
[1] = test system: HIV strain IIIB (wild type); details: for pSI (IIIB) (-log SI; SI = ratio of CC50 to EC50): strain IIIB, CC50 in mock-infected MT4 CMV-EGFP cells
Protocol: Compounds of the invention were tested for their potency against wild type virus and clinically isolated HIV strains harboring one or more mutations associated with resistance to reverse transcriptase inhibitors. Antiviral activity was evaluated using a cellular assay performed according to the following procedure.
The human T-cell line MT4 was engineered with Green Fluorescent Protein (GFP) and a HIV-specific promoter, HIV-1 long terminal repeat (LTR). This cell line, designated MT4 LTR-EGFP, can be used for the in vitro evaluation of anti-HIV activity of investigational compounds. In HIV-1 infected cells, the Tat protein is produced, which upregulates the LTR promotor and eventually leads to stimulation of the GFP reporter production, allowing to measure ongoing HIV-infection fluorometrically.
Analogously, MT4 cells were engineered with GFP and the constitutional cytomegalovirus (CMV) promotor. This cell line was designated MT4 CMV-EGFP, and can be used for the in vitro evaluation of cytotoxicity of investigational compounds. […] Cytotoxic investigational compounds reduce GFP levels of mock-infected MT4 CMV-EGFP cells.
The ratio of CC50 to EC50 is defined as the selectivity index (SI) and is an indication of the selectivity of the anti-HIV activity of the inhibitor. The ultimate monitoring of HIV-1 infection and cytotoxicity was done using a scanning microscope. […] Measurements were done before cell necrosis, which usually takes place about five days after infection, in particular measurements were performed three days after infection.
The columns IIIB, L100I, etc. in the table list the pEC50 (−log EC50) values against various strains IIIB, L100I, etc.; pSI lists the −log SI values.
Strain IIIB is wild type HIV strain.

[2] = target: HIV strain MDR (L100I, K103N, Y181C, E138G, V1791, L2214F, V278V/I and A327A/V in HIV reverse transcriptase); assay type: cell-based, HIV-1; details: MDR strain; MT4 LTR-EGFP cells
From the text: (§1) Image analysis allowed very sensitive detection of viral infection.
“MDR” refers to a strain that contains mutations L100I, K103N, Y181C, E138G, V1791, L2214F, V278V/I and A327A/V in HIV reverse transcriptase.

[3] = test system: HIV strain L100I + K103N; assay type: cell-based, HIV-1; details: L100I + K103N strain; MT4 LTR-EGFP cells
From the text: as §1

[4] = wild type HIV strain IIIB, MT4 LTR-EGFP cells, three days after infection

SMILES | pSI (IIIB) (-log SI; SI = ratio of CC50 to EC50) [1] | IIIB pEC50 (-log EC50) [1, 4] | MDR pEC50 (-log EC50) [2] | L100I + K103N pEC50 (-log EC50) [3] | IIIB pEC50 (-log EC50) [1]
COCCNC(=O)c1c(COC)nc(Nc2ccc(C#N)cc2)nc1Nc1c(C)cc(C=CC#N)cc1C (mixture of isomers) [Compound 10] | 3.44 | 8.46 | 7.30 | 8.10 | 
COCc1nc(Nc2ccc(C#N)cc2)nc(Nc2c(C)cc(C=CC#N)cc2C)c1C(=O)N(C)OC (mixture of isomers) [Compound 25] | 4.02 | 8.72 | 6.27 | 7.19 | 
COCc1nc(Nc2ccc(C#N)cc2)nc(Nc2c(C)cc(C=CC#N)cc2C)c1C(=O)NCCNC(C)=O (mixture of isomers) [Compound 12] | 3.59 | 8.25 | 6.68 | 7.42 | 
COCc1nc(Nc2ccc(C#N)cc2)nc(Nc2c(C)cc(/C=C/C#N)cc2C)c1C(=O)NCCN(C)C [Compound 13] | 3.32 | 8.41 | 5.69 | 6.81 | 
COCCNC(=O)c1c(COC)nc(Nc2ccc(C#N)cc2)nc1Nc1c(C)cc(C=C(C)C#N)cc1C (mixture of isomers) [Compound 32] |  | 8.48 | 7.05 | 7.80 | 
COCc1nc(Nc2ccc(C#N)cc2)nc(Nc2c(C)cc(C=CC#N)cc2C)c1C(=O)N1CCCC(C(N)=O)C1 (mixture of isomers) [Compound 22] | >2.66 | 7.27 | 5.64 | 6.22 | 
COCc1nc(Nc2ccc(C#N)cc2)nc(Nc2c(C)cc(/C=C/C#N)cc2C)c1C(=O)N1CCN(CCO)CC1 [Compound 17] | >2.83 | 7.43 | 5.19 | 6.59 | 
COCc1nc(Nc2ccc(C#N)cc2)nc(Nc2c(C)cc(C=CC#N)cc2C)c1C(=O)NCc1cccnc1 (mixture of isomers) [Compound 8] | 3.13 | 8.54 | 7.07 | 7.57 | 
COCc1nc(Nc2ccc(C#N)cc2)nc(Nc2c(C)cc(C=CC#N)cc2C)c1C(=O)NCc1ccncc1 (mixture of isomers) [Compound 11] | 3.59 | 8.47 | 7.24 | 7.43 | 
COCc1nc(Nc2ccc(C#N)cc2)nc(Nc2c(C)cc(C=CC#N)cc2C)c1C(=O)NCc1cccs1 (mixture of isomers) [Compound 18] | >3.63 | 8.23 | 6.42 | 6.97 | 
COCc1nc(Nc2ccc(C#N)cc2)nc(Nc2c(C)cc(/C=C/C#N)cc2C)c1C(=O)NCCc1cccs1 [Compound 30] | >3.24 | 7.84 | 5.79 | 6.67 | 
COCCNC(=O)c1c(COC)nc(Nc2ccc(C#N)cc2)nc1Oc1c(C)cc(C=CC#N)cc1C (mixture of isomers) [Compound 35] | 3.76 | 8.54 | 6.18 | 7.09 | 
COCc1nc(Nc2ccc(C#N)cc2)nc(Nc2c(C)cc(C=CC#N)cc2C)c1C(=O)NCCN1CCOCC1 (mixture of isomers) [Compound 14] | 3.70 | 8.41 | 6.42 | 6.67 | 
COCc1nc(Nc2ccc(C#N)cc2)nc(Oc2c(C)cc(C=CC#N)cc2C)c1C(=O)NCc1ccncc1 (mixture of isomers) [Compound 33] | 3.54 | 8.40 | 5.91 | 7.03 | 
COCc1nc(Nc2ccc(C#N)cc2)nc(Nc2c(C)cc(/C=C/C#N)cc2C)c1C(=O)NCC(OC)OC [Compound 19] | 3.83 | 8.59 | 6.97 | 7.38 | 
COCc1nc(Nc2ccc(C#N)cc2)nc(Nc2c(C)cc(C=CC#N)cc2C)c1C(=O)NCC1CCCO1 (mixture of isomers) [Compound 9] | 3.55 | 8.28 | 6.45 | 7.26 | 
COCc1nc(Nc2ccc(C#N)cc2)nc(Oc2c(C)cc(C=C(C)C#N)cc2C)c1C(=O)NCc1ccncc1 (mixture of isomers) [Compound 34] | 3.22 | 8.38 | 5.81 | 6.49 | 
COCc1nc(Nc2ccc(C#N)cc2)nc(Nc2c(C)cc(/C=C/C#N)cc2C)c1C(=O)NC1CC1 [Compound 23] | 3.87 | 8.62 | 6.85 | 7.81 | 
COCc1nc(Nc2ccc(C#N)cc2)nc(Nc2c(C)cc(/C=C/C#N)cc2C)c1C(=O)NCCc1ccccn1 [Compound 15] | 3.52 | 8.55 | 6.43 | 7.24 | 
COCc1nc(Nc2ccc(C#N)cc2)nc(Nc2c(C)cc(C=CC#N)cc2C)c1C(=O)N1CCC(O)CC1 (mixture of isomers) [Compound 27] | >3.61 | 8.21 | 5.21 | 5.79 | 
COCc1nc(Nc2ccc(C#N)cc2)nc(Nc2c(C)cc(C=CC#N)cc2C)c1C(=O)N(C)CCN(C)C (mixture of isomers) [Compound 21] | 2.53 | 7.49 | 5.44 | 6.31 | 
COCc1nc(Nc2ccc(C#N)cc2)nc(Nc2c(C)cc(C=CC#N)cc2C)c1C(=O)NCCC#N (mixture of isomers) [Compound 16] | 4.22 | 8.90 | 7.03 | 7.55 | 
COCc1nc(Nc2ccc(C#N)cc2)nc(Nc2c(C)cc(/C=C/C#N)cc2C)c1C(=O)NCc1ccccn1 [Compound 20] | 3.81 | 8.83 | 7.03 | 7.28 | 
COCc1nc(Nc2ccc(C#N)cc2)nc(Nc2c(C)cc(C=CC#N)cc2C)c1C(=O)NCCc1ccc(S(N)(=O)=O)cc1 (mixture of isomers) [Compound 29] | >3.23 | 7.83 | 6.72 | 7.01 | 
C=CCNC(=O)c1c(COC)nc(Nc2ccc(C#N)cc2)nc1Nc1c(C)cc(/C=C/C#N)cc1C [Compound 24] |  |  | 6.72 | 7.99 | 8.66
